ChEMBL document CHEMBL1201862, “PubChem BioAssay data set” (2004)
Calls of active or inactive are those of the source.

What was measured:
[1] = A cytotoxicity screen of small molecule inhibitors of the PhoP region in Salmonella typhi identified in the primary screen. [Related pubchem assays: 1850, 1864, 1985 ]; format: functional
[2] = THP-1 cell cytotoxicity, dose response, cytotoxicity control for Vif-APOBEC3G degradation inhibitor project, THP-1 cells (AID 1117359); format: functional; conditions: Human immunodeficiency virus 1, THP-1
[3] = inhibitors of HIV Env-driven cell fusion, dose response, cherry-pick (AID 652057); format: functional, cell-based
[4] = ZM109 Env clade C HIV-1 fusion inhibitors, dose response, HeLa effector, CEM target cells, luciferase, cherry-pick (AID 652058); format: functional, cell-based
[5] = off-target signal loss in HeLa-CEM21 co-culture – HeLa F-luc CTL cells, cherry-picked, counter-screen for HIV-1 Env fusion inhibitor project, dose response (AID 652040); format: functional, cell-based;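 also: potency for signal decrease marking cytotoxic or nonspecific inhibition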
[6] = inhibitors of clade B AD8 Env fusion, dose response, cell-based, cherry-pick (AID 652062); format: functional;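 also: luciferase signal from cell-cell fusion driven by HIV-1 clade B AD8 Env; potency is for inhibitors of fusion seen as a drop in luminescence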
[7] = HEp-2 cell cytotoxicity, dose response, cytotoxicity control for RSV inhibitor project, HTS (AID 2410); format: functional; conditions: human respiratory syncytial virus
[8] = target: T1, Caspase-6 (Homo sapiens, UniProt P55212); assay: human caspase-6 inhibitors, dose response, biochemical, VEID-R110 fluorescence, cherry-pick (AID 720632)
T1 sequence (P55212 whole entry): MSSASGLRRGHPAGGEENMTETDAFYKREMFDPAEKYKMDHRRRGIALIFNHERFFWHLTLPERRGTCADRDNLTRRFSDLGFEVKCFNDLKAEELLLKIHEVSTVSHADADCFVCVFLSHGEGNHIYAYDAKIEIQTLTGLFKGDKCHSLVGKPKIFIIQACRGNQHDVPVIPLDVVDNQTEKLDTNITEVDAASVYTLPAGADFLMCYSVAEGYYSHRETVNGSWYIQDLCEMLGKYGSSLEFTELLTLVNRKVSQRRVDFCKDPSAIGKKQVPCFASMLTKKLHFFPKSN

[9] = cytotoxicity in HPDE-C7 cells, cell-based, fluorescence, HTS (AID 430); format: functional; conditions: Homo sapiens
[10] = cytotoxicity in KRAS-transformed pancreatic duct cells, primary screen, cell-based, fluorescence, HTS (AID 431); format: functional; conditions: Homo sapiens;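 also: cell line used: HPDE-C7K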
[11] = target: T2, Corticotropin-releasing factor receptor 2/Corticotropin-releasing factor-binding protein (Homo sapiens, UniProt P24387+Q13324); assay: Dose Response confirmation of uHTS hits for small molecule antagonists of the CRF-binding protein and CRF-R2 receptor complex.; format: functional; conditions: read-out: IC50_Mean
T2 sequence (Q13324 whole entry): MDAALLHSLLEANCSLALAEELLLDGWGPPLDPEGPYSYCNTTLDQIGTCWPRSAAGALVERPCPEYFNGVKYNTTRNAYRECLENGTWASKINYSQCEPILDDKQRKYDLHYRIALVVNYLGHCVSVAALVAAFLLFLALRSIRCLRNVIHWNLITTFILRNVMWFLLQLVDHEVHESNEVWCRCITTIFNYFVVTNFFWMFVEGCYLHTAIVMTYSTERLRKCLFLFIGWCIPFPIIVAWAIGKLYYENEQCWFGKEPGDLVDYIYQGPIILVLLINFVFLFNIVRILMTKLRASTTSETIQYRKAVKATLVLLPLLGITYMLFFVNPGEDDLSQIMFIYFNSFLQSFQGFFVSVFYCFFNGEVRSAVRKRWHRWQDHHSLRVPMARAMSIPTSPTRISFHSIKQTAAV
T2 sequence (P24387 whole entry): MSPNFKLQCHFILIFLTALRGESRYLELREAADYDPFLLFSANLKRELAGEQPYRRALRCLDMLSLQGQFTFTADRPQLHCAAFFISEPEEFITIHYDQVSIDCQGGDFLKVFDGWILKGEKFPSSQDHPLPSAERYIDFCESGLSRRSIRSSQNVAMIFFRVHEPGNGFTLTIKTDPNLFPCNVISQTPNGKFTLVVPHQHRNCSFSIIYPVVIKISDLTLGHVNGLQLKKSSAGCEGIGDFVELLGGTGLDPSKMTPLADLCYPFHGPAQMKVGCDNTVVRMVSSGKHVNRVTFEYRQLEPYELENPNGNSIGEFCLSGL

[12] = target: T2, Corticotropin-releasing factor receptor 2/Corticotropin-releasing factor-binding protein; assay: activators of CRF receptor 2 with binding protein – uHTS hits, confirmation (AID 602473); format: functional; conditions: read-out: EC50_Mean
[13] = target: T3, Protein Tat (Human immunodeficiency virus type 1 group M subtype B (isolate HXB2)(HIV-1), UniProt P04608); format: functional;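 also: tat binding to TAR RNA read out by fluorescence polarization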
T3 sequence (P04608 whole entry): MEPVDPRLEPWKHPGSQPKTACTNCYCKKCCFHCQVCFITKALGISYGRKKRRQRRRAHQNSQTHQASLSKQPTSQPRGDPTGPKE

[14] = target: T4, Long-chain-fatty-acid--AMP ligase FadD28 (Mycobacterium tuberculosis, UniProt P9WQ59); assay: Fluorescence polarization aasay to screen for inhibitors that compete for the binding of FadD28 to a bisubstrate Measured in Biochemical System Using Plate Reader - 2147-01_Inhibitor_Dose_CherryPick_Activity.; format: functional, Mycobacterium tuberculosis H37Rv
T4 sequence (P9WQ59 whole entry): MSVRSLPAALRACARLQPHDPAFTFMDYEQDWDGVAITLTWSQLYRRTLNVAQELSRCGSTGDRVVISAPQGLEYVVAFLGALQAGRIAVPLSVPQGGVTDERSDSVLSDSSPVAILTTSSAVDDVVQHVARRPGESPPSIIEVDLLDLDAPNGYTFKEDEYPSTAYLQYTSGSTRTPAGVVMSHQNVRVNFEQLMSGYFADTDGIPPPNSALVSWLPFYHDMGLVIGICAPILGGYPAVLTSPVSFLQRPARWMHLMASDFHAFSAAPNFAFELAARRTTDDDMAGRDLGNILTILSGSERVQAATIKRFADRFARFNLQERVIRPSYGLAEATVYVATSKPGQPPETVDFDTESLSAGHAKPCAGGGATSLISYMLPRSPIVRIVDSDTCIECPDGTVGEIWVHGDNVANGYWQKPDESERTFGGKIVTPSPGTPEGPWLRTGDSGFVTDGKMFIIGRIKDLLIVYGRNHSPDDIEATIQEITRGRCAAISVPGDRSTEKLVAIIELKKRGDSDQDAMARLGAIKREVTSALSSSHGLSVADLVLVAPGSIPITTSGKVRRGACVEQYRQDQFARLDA

With `Cc1ccsc1/C=N/Nc1ccc(C(=O)O)cc1` the EC50 [1] was > 50 µM (active).

In the case of `COc1ccccc1N1CCN(CC(O)COCCOc2ccc(Br)cc2)CC1` (stereo unspecified), the CC50 [2] is reported as 29.9 µM (active).

In the case of `C=C1CCN([C@H](C(=O)OCc2ccc(C)cc2)C(C)C)S(=O)(=O)c2ccccc21`, the AC50 [3] is reported as 3.35 µM (active), the AC50 [4] is reported as 7.43 µM (active) and the AC50 [5] is reported as 5.69 µM (active). The AC50 [6] was 13.2 µM (active).

With `CC[C@@]12C(=O)N(c3ccc(C)cc3)C(=O)N1[C@H](c1ccc(Br)cc1)[C@@H]1C(=O)N(C(C)(C)C)C(=O)[C@@H]12` the CC50 [7] was > 50 µM (active), the AC50 [3] was 0.301 µM (active) and the AC50 [4] was < 0.5 µM (active). For the same compound, the AC50 [5] was 0.559 µM (active) and the AC50 [6] was 1.06 µM (active).

For `CCCC1(c2ccccc2)NC(=O)N(CC(=O)Nc2ccccc2C(F)(F)F)C1=O` (stereo unspecified), the EC50 [1] was > 50 µM (active).

For `O=C(Cc1ccccc1)N1CCCCN2[C@H](CO)[C@@H](c3ccc(C#Cc4ccccc4)cc3)[C@H]2C1`, the AC50 [8] was 47.3 µM (active).

In the case of `Cc1ccc(-c2nnc(N3CCN(c4ccccn4)CC3)c3ccccc23)cc1`, the EC50 [9] is reported as 16.5 µM (active) and the EC50 [10] is reported as 16.7 µM (active).

In the case of `CC(OC(=O)CC1CCCC1)C(=O)Nc1ccc(Cl)cn1` (stereo unspecified), the CC50 [2] is reported as > 40 µM (active).

With `CC(C)CC(NC(=O)/C(=C/c1ccco1)NC(=O)c1ccc(Br)o1)C(=O)O` (stereo unspecified) the IC50 [11] was > 47.1 µM (inactive), the EC50 [12] was > 53 µM (inactive) and the IC50 [13] was > 100 µM (active).

In the case of `Cc1cc(/C=N/NC(=O)C(O)(c2ccccc2)c2ccccc2)c(C)n1-c1cccc(C(=O)O)c1`, the AC50 [8] is reported as 1.78 µM (active).

In the case of `COc1cccc(C2CC(c3ccccc3)=NN2S(=O)(=O)c2ccccc2)c1OC` (stereo unspecified), the AC50 [14] is reported as 62.2 µM (active).
